Measured values from US8945846B2, “Mutations in the LNK gene in patients with myeloproliferative neoplasms and other hematolymphoid malignancies” (The Board of Trustees of the Leland Stanford Junior …, priority 2010, dated 2015).

Columns and labels:
JAK2-STAT3/5 activation = assay: TPO-stimulated JAK2, STAT3 and STAT5 activation by phospho-specific flow cytometry in BaF3-MPL cells; format: cell-based; conditions: BaF3-MPL cells expressing WT or mutant LNK; pre-incubated two hours with 0.2 μM to 5 μM, then TPO 10 ng/mL; FIG. 5
Method: FIG. 5. Activation of JAK2-STAT3/5 in BaF3-MPL cells expressing WT or mutant LNK requires JAK activity. BaF3-MPL cells expressing WT or mutant LNK were pre-incubated with DMSO or JAK inhibitor I at concentrations ranging from 0.2 μM to 5 μM for two hours prior to stimulation with TPO (10 ng/mL). JAK2, STAT3, and STAT5 activation were then measured by phospho-specific flow cytometry. Line graphs represent % maximal activation for each cell line.
BaF3-MPL cells were starved overnight in cytokine-free media and stimulated with TPO (1 or 10 ng/mL) for time points ranging from 15 minutes to 16 hours at 37° C. Peripheral blood samples were stimulated with either TPO (50 ng/ml) or G-CSF (20 ng/ml)(Peprotech, Rocky Hill, N.J.) for 15 minutes at 37° C. PBMCs were rested in RPMI with 10% FBS for one hour at 37° C. prior to cytokine stimulation. For the JAK inhibitor experiments, PBMCs were incubated with 5 μM JAK inhibitor I (EMD/Calbiochem, San Diego, Calif.) for the final 30 minutes prior to cytokine stimulation. Following cytokine stimulation, cells were fixed in paraformaldehyde (Electron Microscopy Sciences, Hatfield, Pa.). […] Cells were measured on a BD LSRII flow cytometer. […] Flow cytometry data was obtained with FACSDiva software and analyzed using FlowJo (Tree Star, Ashland, Oreg.) or Cytobank according to standard procedures. […]

[1] = system: STAT3/5 activation (pSTAT3+/5+ subpopulation); assay: Cytokine-stimulated STAT3/5 activation by phospho-specific flow cytometry in patient peripheral blood immature myeloid cells; format: cell-based, human; conditions: samples from LNK DEL, E208Q, JAK2 V617F, MPL W515L patients and normal donor; 5 μM for 30 minutes, then TPO 50 ng/ml or G-CSF 20 ng/ml for 15 minutes; FIG. 3A
Method: FIG. 3. Identification of a cytokine-responsive pSTAT3+/pSTAT5+ population in CD34+ early progenitors from patients with LNK mutations. Peripheral blood samples from patients with the LNK DEL and E208Q mutations, as well as PMF patients with the JAK2 V617F and MPL W515L mutations, were compared with normal donor. CD3-/CD66-/CD33mid immature myeloid cells are shown in Panels A-C. In Panel A, samples were pre-incubated with either DMSO or JAK inhibitor I (5 μM) for 30 minutes, and then stimulated with either TPO (50 ng/ml) or G-CSF (20 ng/ml) for 15 minutes, prior to assessment of STAT3 and STAT5 activation by phospho-specific flow cytometry. […] For Panels A and B, numbers depicted in each quadrant represent the percentage of total cells present in each quadrant gate. […] DNA was isolated from each subset, and allele-specific quantitative PCR for the DEL mutation was performed. […]
BaF3-MPL cells were starved overnight in cytokine-free media and stimulated with TPO (1 or 10 ng/mL) for time points ranging from 15 minutes to 16 hours at 37° C. […] Cells were measured on a BD LSRII flow cytometer. […] Flow cytometry data was obtained with FACSDiva software and analyzed using FlowJo (Tree Star, Ashland, Oreg.) or Cytobank according to standard procedures. […]

[2] = system: BaF3-MPL cells expressing WT or mutant LNK; assay: JAK inhibitor growth assay of BaF3-MPL cells grown with TPO; format: cell-based; conditions: TPO 10 ng/mL, JAK inhibitor I 0.2 μM to 5 μM, FIG. 2C
Method: FIG. 2. LNK mutations cause dysregulated TPO-dependent growth and JAK2-STAT3/5 activation. BaF3-MPL cells were transduced with empty vector (EV), WT LNK (WT), or mutant LNK (DEL, E208Q, R392E). […] Viable cells were counted daily by staining with propidium iodide (PI) and quantitated with TruCount beads on a LSRII flow cytometer. Error bars represent the standard deviation of two replicates per sample. In Panel B, BaF3-MPL cells were stimulated with TPO (1 ng/ml) for the durations indicated, followed by measurement of JAK2, STAT3 and STAT5 activation via phospho-specific flow cytometry. […] Vertical lines denote the MFI of EV unstimulated cells for comparison. In Panel C, BaF3-MPL cells were cultured in the presence of DMSO control or concentrations of JAK inhibitor I ranging from 0.2 μM to 5 μM. Cumulative growth at four days (normalized to maximal growth for each cell line) is shown. Error bars represent the standard deviation of two replicates per sample.
BaF3-MPL cells were kindly provided by J. Tyner/B. Druker (Oregon Health and Sciences University, Portland, Oreg.) and were maintained in RPMI medium containing 10% FBS and IL-3 (1 ng/mL) (Peprotech, Rocky Hill, N.J.). […] Viable cells were counted daily by staining with propidium iodide (PI) and quantitated with TruCount beads (BD Biosciences, San Jose, Calif.) on a LSRII flow cytometer. […]

Substance: JAK inhibitor I
- Inhibition of JAK2-STAT3/5 activation (JAK2-STAT3/5 activation): effectively inhibited
- Effect on cytokine-responsive pSTAT3+/5+ subpopulation [1]: completely eradicated
- TPO-dependent growth (cumulative growth at four days) [2]: remained susceptible to JAK inhibition
